Source: patent US8957093B2, “N-biphenylmethylindole modulators of PPARG” (The Scripps Research Institute, priority 2011, dated 2015)
Where two headings read alike, the source gives them in different places.

Columns and labels:
[1] = biological target: GST-PPARG-LBD (Homo sapiens (Human), UniProt P37231); experiment: Lanthascreen PPARG competitive binding assay (Invitrogen, TR-FRET); details: Lanthascreen competitive binding; NA = not active; inc = incomplete curve; read-out: IC50 (nM) Lantha
In short: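 TR-FRET competitive binding of GST-PPARG-LBD with 5 nM Tb-GST-antibody and 5 nM Fluormone Pan-PPAR Green tracer, in TR-FRET buffer C. Compound serially diluted from 10 μM, 2 h dark incubation, in triplicate. Readout is 520/490 nm emission ratio (340 nm excitation), expressed as fold change over 2% DMSO control.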

[2] = biological target: Gal-4-PPAR (human PPAR LBD fused to GAL4 DNA-binding domain) (Homo sapiens (Human), UniProt P37231); experiment: GAL4-PPARG LBD / UAS-luciferase transactivation assay in HEK 293T cells; type: cell-based
[3] = GAL4 transactivation, HEK 293T cells; NA = not active; read-out: EC50 (nM) GAL4
[4] = HEK-293T, 18 h; read-out: % transactivation at 10 μM (GAL4)

Sequence of GST-PPARG-LBD (P37231 238-503): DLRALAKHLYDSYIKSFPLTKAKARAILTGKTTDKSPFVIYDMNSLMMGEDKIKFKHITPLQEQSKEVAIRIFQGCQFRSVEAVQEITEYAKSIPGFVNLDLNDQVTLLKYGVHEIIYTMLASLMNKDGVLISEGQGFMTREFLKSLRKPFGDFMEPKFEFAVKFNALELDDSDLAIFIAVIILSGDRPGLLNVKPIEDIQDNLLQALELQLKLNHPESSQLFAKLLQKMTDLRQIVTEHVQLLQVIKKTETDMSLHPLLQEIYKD
Sequence of Gal-4-PPAR (human PPAR LBD fused to GAL4 DNA-binding domain) (P37231 238-503): as above

Compound | IC50 [1] [nM] | EC50 [2, 3] [nM] | activation at 10 µM [2, 4] [%] | activation at 10 µM ([2]; HEK-293T, 18 h, read-out: % transactivation at 10 μM (GAL4)) [%]
COc1ccccc1[C@H](C)NC(=O)c1ccc2c(c1)c(C)c(C)n2Cc1ccc(-c2ccccc2C(=O)O)cc1 [Example 175, (S)-4′-((5-((1-(2-methoxyphenyl)ethyl)carbamoyl)-2,3-dimethyl-1H-indol-1-yl)methyl)-[1,1′-biphenyl]-2-carboxylic acid] | 16 | 360 | 20 | 
Cc1c(C)n(Cc2ccc(-c3ccccc3C(=O)O)cc2)c2ccc(C(=O)NC(C)(C)c3ccc(Br)cc3)cc12 [Example 180, 4′-((5-((2-(4-bromophenyl)propan-2-yl)carbamoyl)-2,3-dimethyl-1H-indol-1-yl)methyl)-[1,1′-biphenyl]-2-carboxylic acid] | 1 | 119 |  | 60
Cc1c(C)n(Cc2ccc(-c3ccccc3C(=O)O)cc2)c2ccc(C(=O)N[C@H](C)c3ccnc4ccccc34)cc12 [Example 181, (R)-4′-((2,3-dimethyl-5-((1-(quinolin-4-yl)ethyl)carbamoyl)-1H-indol-1-yl)methyl)-[1,1′-biphenyl]-2-carboxylic acid] | 512 | 5240 | 40 | 
Cc1c(C)n(Cc2ccc(-c3ccccc3-c3nnn[nH]3)cc2)c2ccc(C(=O)N[C@H](C)c3cccc(Br)c3)cc12 [Example 187, (R)-1-((2′-(1H-tetrazol-5-yl)-[1,1′-biphenyl]-4-yl)methyl)-N-(1-(3-bromophenyl)ethyl)-2,3-dimethyl-1H-indole-5-carboxamide] | < 1 | 5 | 20 | 
Cc1c(C)n(Cc2ccc(-c3ccccc3-c3nnn[nH]3)cc2)c2ccc(C(=O)N[C@@H](C)c3cccc(C4CC4)c3)cc12 [Example 188, (S)-1-((2′-(1H-tetrazol-5-yl)-[1,1′-biphenyl]-4-yl)methyl)-N-(1-(3-cyclopropylphenyl)ethyl)-2,3-dimethyl-1H-indole-5-carboxamide] | 10 | 3150 | 20 | 
CC[C@@H](NC(=O)c1ccc2c(ccn2Cc2ccccc2-c2ccc(C(=O)O)cc2)c1)c1ccccc1 [Example 190, (R)-2′-((5-((1-phenylpropyl)carbamoyl)-1H-indol-1-yl)methyl)-[1,1′-biphenyl]-4-carboxylic acid] | 5 | 51 | 45 | 
CC[C@H](NC(=O)c1ccc2c(ccn2Cc2ccccc2-c2cccc(C(=O)O)c2)c1)c1ccccc1 [Example 191, (S)-2′-((5-((1-phenylpropyl)carbamoyl)-1H-indol-1-yl)methyl)-[1,1′-biphenyl]-3-carboxylic acid] | 80 | 1000 | 20 | 
CC[C@@H](NC(=O)c1ccc2c(ccn2Cc2ccccc2-c2cccc(C(=O)O)c2)c1)c1ccccc1 [Example 192, (R)-2′-((5-((1-phenylpropyl)carbamoyl)-1H-indol-1-yl)methyl)-[1,1′-biphenyl]-3-carboxylic acid] | 4 | 27 | 40 | 
COc1ccc([C@H](C)NC(=O)c2ccc3c(c2)c(C)c(C)n3Cc2ccc(-c3ccccc3C(=O)O)cc2)cc1Cl [Example 197, (S)-4′-((5-((1-(3-chloro-4-methoxyphenyl)ethyl)carbamoyl)-2,3-dimethyl-1H-indol-1-yl)methyl)-[1,1′-biphenyl]-2-carboxylic acid] | 17 | 1630 | 20 | 
Cc1c(C)n(Cc2ccc(-c3ccccc3C(=O)O)cc2)c2ccc(C(=O)N[C@@H](C)C3CCN(C(=O)OCc4ccccc4)CC3)cc12 [Example 202, (S)-4′-((5-((1-(1-((benzyloxy)carbonyl)piperidin-4-yl)ethyl)carbamoyl)-2,3-dimethyl-1H-indol-1-yl)methyl)-[1,1′-biphenyl]-2-carboxylic acid] | 35 | 1750 | 40 | 
COc1ccc(F)cc1[C@@H](C)NC(=O)c1ccc2c(c1)c(C)c(C)n2Cc1ccc(-c2ccccc2C(=O)O)cc1 [Example 205, (R)-4′-((5-((1-(5-fluoro-2-methoxyphenyl)ethyl)carbamoyl)-2,3-dimethyl-1H-indol-1-yl)methyl)-[1,1′-biphenyl]-2-carboxylic acid] | 5 | 637 | 20 | 
COc1ccc(F)cc1[C@H](C)NC(=O)c1ccc2c(c1)c(C)c(C)n2Cc1ccc(-c2ccccc2C(=O)O)cc1 [Example 206, (S)-4′-((5-((1-(5-fluoro-2-methoxyphenyl)ethyl)carbamoyl)-2,3-dimethyl-1H-indol-1-yl)methyl)-[1,1′-biphenyl]-2-carboxylic acid] | 26 | 405 | 20 | 
Cc1c(C)n(Cc2ccc(-c3ccccc3C(=O)O)cc2)c2ccc(C(=O)N[C@H](C)c3ccccc3C(F)(F)F)cc12 [Example 207, (R)-4′-((2,3-dimethyl-5-((1-(2-(trifluoromethyl)phenyl)ethyl)carbamoyl)-1H-indol-1-yl)methyl)-[1,1′-biphenyl]-2-carboxylic acid] | 1 | 629 | 20 | 
Cc1c(C)n(Cc2ccc(-c3ccccc3C(=O)O)cc2)c2ccc(C(=O)N[C@@H](C)c3ccccc3C(F)(F)F)cc12 [Example 208, (S)-4′-((2,3-dimethyl-5-((1-(2-(trifluoromethyl)phenyl)ethyl)carbamoyl)-1H-indol-1-yl)methyl)-[1,1′-biphenyl]-2-carboxylic acid] | 22 | 369 | 20 | 
Cc1c(C)n(Cc2ccc(-c3ccccc3C(=O)O)cc2)c2ccc(C(=O)N[C@H](C)c3ccc(C(F)(F)F)cc3C(F)(F)F)cc12 [Example 209, (R)-4′-((5-((1-(2,4-bis(trifluoromethyl)phenyl)ethyl)carbamoyl)-2,3-dimethyl-1H-indol-1-yl)methyl)-[1,1′-biphenyl]-2-carboxylic acid] | 11 | 211 | 10 | 
Cc1c(C)n(Cc2ccc(-c3ccccc3C(=O)O)cc2)c2ccc(C(=O)N[C@@H](C)c3ccc(C(F)(F)F)cc3C(F)(F)F)cc12 [Example 210, (S)-4′-((5-((1-(2,4-bis(trifluoromethyl)phenyl)ethyl)carbamoyl)-2,3-dimethyl-1H-indol-1-yl)methyl)-[1,1′-biphenyl]-2-carboxylic acid] | 241 | 1290 | 20 | 
Cc1ccc(F)c([C@H](C)NC(=O)c2ccc3c(c2)c(C)c(C)n3Cc2ccc(-c3ccccc3C(=O)O)cc2)c1 [Example 211, (S)-4′-((5-((1-(2-fluoro-5-methylphenyl)ethyl)carbamoyl)-2,3-dimethyl-1H-indol-1-yl)methyl)-[1,1′-biphenyl]-2-carboxylic acid] | 6 | 251 | 20 | 
Cc1c(C)n(Cc2ccc(-c3ccccc3C(=O)O)cc2)c2ccc(C(=O)N[C@@H](C)C3CCCCC3)cc12 [Example 212, (S)-4′-((5-((1-cyclohexylethyl)carbamoyl)-2,3-dimethyl-1H-indol-1-yl)methyl)-[1,1′-biphenyl]-2-carboxylic acid] | 4 | 209 | 20 | 
Cc1c(C)n(Cc2ccc(-c3ccccc3C(=O)O)cc2)c2ccc(C(=O)N[C@H](C)C3COc4ccccc4O3)cc12 (stereo partly drawn) [Example 213, 4′-((5-(((1R)-1-(2,3-dihydrobenzo[b][1,4]dioxin-2-yl)ethyl)carbamoyl)-2,3-dimethyl-1H-indol-1-yl)methyl)-[1,1′-biphenyl]-2-carboxylic acid] | 3 | 672 | 40 | 
Cc1c(C)n(Cc2ccc(-c3ccccc3C(=O)O)cc2)c2ccc(C(=O)N[C@@H](C)C3COc4ccccc4O3)cc12 (stereo partly drawn) [Example 214, 4′-((5-(((1S)-1-(2,3-dihydrobenzo[b][1,4]dioxin-2-yl)ethyl)carbamoyl)-2,3-dimethyl-1H-indol-1-yl)methyl)-[1,1′-biphenyl]-2-carboxylic acid] | 25 | 2350 | 20 | 
Cc1c(C)n(Cc2ccc(-c3ccccc3C(=O)O)cc2)c2ccc(C(=O)N[C@@H](C)c3c(F)cncc3F)cc12 [Example 216, (S)-4′-((5-((1-(3,5-difluoropyridin-4-yl)ethyl)carbamoyl)-2,3-dimethyl-1H-indol-1-yl)methyl)-[1,1′-biphenyl]-2-carboxylic acid] | 33 | 884 | 30 | 
Cc1c(C)n(Cc2ccc(-c3ccccc3C(=O)O)cc2)c2ccc(C(=O)N[C@@H](C)c3ccc(C(F)(F)F)nc3)cc12 [Example 217, (S)-4′-((2,3-dimethyl-5-((1-(6-(trifluoromethyl)pyridin-3-yl)ethyl)carbamoyl)-1H-indol-1-yl)methyl)-[1,1′-biphenyl]-2-carboxylic acid] | 230 | 2800 | 15 | 
Cc1c(C)n(Cc2ccc(-c3ccccc3C(=O)O)cc2)c2ccc(C(=O)N[C@@H](C)c3ccc4c(c3)CCO4)cc12 [Example 218, (S)-4′-((5-((1-(2,3-dihydrobenzofuran-5-yl)ethyl)carbamoyl)-2,3-dimethyl-1H-indol-1-yl)methyl)-[1,1′-biphenyl]-2-carboxylic acid] | 223 | 2550 | 45 | 
